Reference: patent US6790829B1, “Cyclic decapeptide antibiotics” (priority 1998, dated 2004)
Converted amounts (≈) assume the structure as drawn. Where a SMILES comes first, the peptide text is derived from it. [ ]: non-standard residue; d: D form. Orn = NCCC[C@H](N)C(=O)O

Tests used:
[1] = system: S. aureus (MRSA); format: cell-based, Staphylococcus aureus
Description: (§1) Antimicrobial activity was determined by macrobroth dilution antimicrobial susceptibility testing. Solutions of the cyclic decapeptides (Loloatin A, B and C) and a control (vancomycin) were prepared in tryptic soy broth. Initially, a 100 μg/ml solution of each compound was tested. When inhibition of target microorganism was detected, serial two-fold dilutions of the compound in broth were tested to determine the minimal inhibitory concentration (MIC) of each compound for each target organisms. Target organisms tested are listed below in Table 3, and included methicillin resistant Staphylococcus aureus, vancomycin resistant Enterococcus sp. Escherichia coli, multiply drug resistant Pseudomonas aeruginosa; Stenofrophomonas maltophilia and Candida albicans. Turbidity standardized suspensions of each organism were prepared according to accepted protocols using a 0.5 McFarland turbidity standard, and these standardized suspensions were used to inoculate the tubes containing the compounds. Activity of a compound was indicated by lack of growth (turbidity) of one or more of the target organisms. See Woods, G. L. and Washington, J. A., “Antibacterial susceptibility tests: dilution and disk diffusion methods, Manual of Clinical Microbiology (6th Ed.), Murray, Baron, Pfaller, Tenover and Yolken Eds.), ASM Press, Washington D.C., 1995, pp. 1327-1341. Other compounds of the invention may be screened and evaluated for antibiotic activity in the same manner.

[2] = system: Enterococcus faecalis (13242); test: microbe, parasite or virus in culture; format: cell-based; settings: for BROTH DILUTION MIC: 13242
Description: as §1

[3] = system: Enterococcus faecalis (ATCC51299); test: microbe, parasite or virus in culture; format: cell-based; settings: for BROTH DILUTION MIC: ATCC51299
Description: as §1

[4] = system: Enterococcus faecium (19007); test: microbe, parasite or virus in culture; format: cell-based; settings: for BROTH DILUTION MIC: 19007
Description: as §1

[5] = system: Enterococcus faecium (F4641); test: microbe, parasite or virus in culture; format: cell-based; settings: for BROTH DILUTION MIC: F4641
Description: as §1

[6] = system: Enterococcus gallinarum; test: microbe, parasite or virus in culture; format: cell-based
Description: as §1

[7] = system: Candida albicans; format: cell-based
Description: as §1

[8] = system: Enterobacter cloacae; format: cell-based
Description: as §1

[9] = system: Escherichia coli; format: cell-based
Description: as §1

[10] = system: Group A Streptococcus (19615); format: cell-based
Description: as §1

[11] = system: Group B Streptococcus (12401); format: cell-based
Description: as §1

[12] = system: Pseudomonas aeruginosa; format: cell-based
Description: as §1

[13] = system: Stenotrophomonas maltophilia; format: cell-based
Description: as §1

[14] = system: MRSA 034; test: In-vitro Microbiology of Fraction 73 (MIC/MBZ); format: cell-based, Staphylococcus aureus
Text: (§2) The complex reaction mixture from Method C was chromatographed on reverse phase HPLC, and a microtiter plate assay was run throughout the entire chromatogram to identify active materials.

[15] = system: P.a. 028; test: In-vitro Microbiology of Fraction 73 (MIC/MBZ); format: cell-based, Pseudomonas aeruginosa
Text: as §2

[16] = system: Candida albicans; format: cell-based; remark: listed apart in the source
Description: (§3) Antimicrobial activity was determined by macrobroth dilution antimicrobial susceptibility testing. A solution of Loloatin B was prepared in tryptic soy broth. Initially, a […] solution of the peptide was tested. If inhibition of a target microorganism was detected, serial two-fold dilutions (in broth) of the Loloatin B solutions were tested to determine the minimal inhibitory concentration (MIC) of Loloatin B for each target organism Target organisms tested are identified in Table 2. Turbidity standardized suspensions of each organism were prepared according to accepted protocols using a 0.5 McFarland turbidity standard, and these standardized suspensions were used to inoculate a tube containing Loloatin B. Activity of Loloatin B was indicated by lack of growth (turbidity) of one or more of the target organisms.
(§4) See Woods, G. L. et al., “Antibacterial susceptibility tests: dilution and disk diffusion methods, Manual of Clinical Microbiology (6^thEd.), Murray, Baron, Pfaller, Tenover and Yolken (Eds.), ASM Press, Washington D.C., 1995, pp. 1327-1341.

[17] = system: Enterobacter cloacae; format: cell-based; remark: listed apart in the source
Description: as §3, §4

[18] = system: Escherichia coli; format: cell-based; remark: listed apart in the source
Description: as §3, §4

[19] = system: Methicillin resistant Staphylococcus aureus; format: cell-based
Description: as §3, §4

[20] = system: Penicillin resistant Streptococcus pneumoniae; format: cell-based
Description: as §3, §4

[21] = system: Pseudomonas aeruginosa; format: cell-based; remark: listed apart in the source
Description: as §3, §4

[22] = system: Vancomycin resistant Enterococcus faecalis; format: cell-based
Description: as §3, §4

[23] = system: Xanthomonas maltophilia; format: cell-based
Description: as §3, §4

[24] = Microtiter plate assay of HPLC fractions to identify active materials; format: cell-based; settings: reverse phase HPLC fractions of Method C cyclization mixture
Text: as §2

[25] = Enterococcus faecium, read-out: BROTH DILUTION MIC

Row | SMILES | BROTH DILUTION MIC [1] [µg/mL] | BROTH DILUTION MIC [2] [µg/mL] | BROTH DILUTION MIC [3] [µg/mL] | BROTH DILUTION MIC [4] [µg/mL] | BROTH DILUTION MIC [5] [µg/mL] | BROTH DILUTION MIC [6] [µg/mL] | BROTH DILUTION MIC [7] [µg/mL] | BROTH DILUTION MIC [8] [µg/mL] | BROTH DILUTION MIC [9] [µg/mL] | BROTH DILUTION MIC [10] [µg/mL] | BROTH DILUTION MIC [11] [µg/mL] | BROTH DILUTION MIC [12] [µg/mL] | BROTH DILUTION MIC [13] [µg/mL] | other results
1 | CC(C)C[C@@H]1NC(=O)[C@H](CCCN)NC(=O)[C@H](C(C)C)NC(=O)[C@H](Cc2ccc(O)cc2)NC(=O)[C@H](CC(=O)O)NC(=O)[C@H](CC(N)=O)NC(=O)[C@@H](Cc2ccccc2)NC(=O)[C@H](Cc2ccccc2)NC(=O)[C@@H]2CCCN2C(=O)[C@@H](Cc2ccc(O)cc2)NC1=O [Loloatin A, cyclo[L-Val-L-Orn-L-Leu-D-Tyr-L-Pro-L-Phe-D-Phe-L-Asn-L-Asp-L-Tyr]] (cyclo(DYV[Orn]L[dY]PF[dF]N)) | 2 to 4 | 2 to 4 | 2 to 4 | 2 to 4 | 2 to 4 | 2 to 4 | 16 | >100 | >100 | <0.25 | <1 | >100 | >100 | 
2 | CC(C)C[C@@H]1NC(=O)[C@H](CCCN)NC(=O)[C@H](C(C)C)NC(=O)[C@H](Cc2c[nH]c3ccccc23)NC(=O)[C@H](CC(=O)O)NC(=O)[C@H](CC(N)=O)NC(=O)[C@@H](Cc2ccccc2)NC(=O)[C@H](Cc2ccccc2)NC(=O)[C@@H]2CCCN2C(=O)[C@@H](Cc2ccc(O)cc2)NC1=O [Loloatin B, cyclo [L-Val-L-Orn-L-Leu-D-Tyr-L-Pro-L-Phe-D-Phe-L-Asn-L-Asp-L-Trp]] (cyclo(V[Orn]L[dY]PF[dF]NDW)) | 2 to 4 | 2 to 4 | 2 to 4 | 2 to 4 | 2 to 4 | 2 to 4 | 16 | >100 | >100 | <0.25 | <1 |  | >100 | MBZ [14]: 8.0; MIC [14]: 8.0; MBZ [15]: >128; MIC [15]: >128; Minimum Inhibitory Concentration [16]: >100 µg/mL; Minimum Inhibitory Concentration [17]: >100 µg/mL; Minimum Inhibitory Concentration [18]: >100 µg/mL; Minimum Inhibitory Concentration [19]: <2 µg/mL; Minimum Inhibitory Concentration [20]: <2 µg/mL; Minimum Inhibitory Concentration [21]: >100 µg/mL; Minimum Inhibitory Concentration [22]: <2 µg/mL; Minimum Inhibitory Concentration [23]: >100 µg/mL; biological activity of HPLC fraction (in words) [24]: exhibited the desired biological activity
3 | CC(C)C[C@@H]1NC(=O)[C@H](CCCN)NC(=O)[C@H](C(C)C)NC(=O)[C@H](Cc2c[nH]c3ccccc23)NC(=O)[C@H](CC(=O)O)NC(=O)[C@H](CC(N)=O)NC(=O)[C@@H](Cc2ccccc2)NC(=O)[C@H](Cc2c[nH]c3ccccc23)NC(=O)[C@@H]2CCCN2C(=O)[C@@H](Cc2ccc(O)cc2)NC1=O [Loloatin C, cyclo [L-Val-L-Orn-L-Leu-D-Tyr-L-Pro-L-Trp-D-Phe-L-Asn-L-Asp-L-Trp]] (cyclo(DWV[Orn]L[dY]PW[dF]N)) | 0.5 to 1 | 1 to 2 | 2 to 4 | 2 | 2 | 1 to 2 | 16 | >100 | 1 to 2 | <0.25 | <0.25 | >100 | >100 | activity against Escherichia coli (in words) ([9]; Escherichia coli, a gram negative rod bacteria, comment on Table 3): excellent activity
4 | CN[C@H](CC(C)C)C(=O)N[C@H]1C(=O)N[C@@H](CC(N)=O)C(=O)N[C@H]2C(=O)N[C@H]3C(=O)N[C@H](C(=O)N[C@H](C(=O)O)c4cc(O)cc(O)c4-c4cc3ccc4O)[C@H](O)c3ccc(c(Cl)c3)Oc3cc2cc(c3O[C@@H]2O[C@H](CO)[C@@H](O)[C@H](O)[C@H]2O[C@H]2C[C@](C)(N)[C@H](O)[C@H](C)O2)Oc2ccc(cc2Cl)[C@H]1O [Vancomycin, vancomycin, reference compound] |  |  |  |  |  |  |  |  |  |  |  |  |  | MIC ([2]; Enterococcus faecalis, read-out: BROTH DILUTION MIC): > 100 µg/mL; MIC ([3]; Enterococcus faecalis, ATCC51299, read-out: BROTH DILUTION MIC): 20 µg/mL (≈ 13.8 µM); MIC [4, 25]: > 100 µg/mL; MIC [5, 25]: 6 µg/mL (≈ 4.14 µM); MIC ([6]; Enterococcus gallinarum, GALLINARUM, read-out: BROTH DILUTION MIC): 6 µg/mL (≈ 4.14 µM)
